In brackets after ≈: the same amount, converted by molar mass. Residues, ends and D or L forms follow the SMILES beside them.
Experiments:
Format in all cases: cell-based
[1] = test system: Neisseria
Protocol: (§1) Gram negative bacterial strains were cultivated in Luria-Bertani (LB) broth (Difco) and gram positive bacteria strains were grown in a rich medium, brain heart infusion (BHI) broth (Difco, Sparks, MD) at 37° C. Whenever required, growth media were supplemented with appropriate antibiotic to the medium or plates. Escherichia coli DH5α was used for cloning and plasmid amplification. […] Bacterial CFU counting was done on blood agar plates (BD Biosciences). Species identification and antibiograms for all clinical isolates were performed using MALDI-TOF and VITEK® 2 automated system (bioMérieux).
(§2) The MICs of active peptides were determined via the Broth microdilution assay according to the EUCAST guideline, which were performed in 96-well polystyrene flat-bottom microtiter plates (BD Biosciences). Briefly, a single colony was inoculated into 5 mL LB medium and grown to the end-exponential growth phase in a shaking incubator at 37° C. Cultures were subsequently diluted to an OD600 of 0.002 ([…]) in fresh LB medium. 100 μL of LB medium with different concentration of peptides ranging from 100 μg/mL to 1 μg/mL were serially diluted to the sterile 96-well plate (at least 3 wells in each plate). Afterward, 100 μL of the diluted bacteria were pipetted into 96-well plates containing different concentration of peptides. In each plate, the grown bacteria with maximum concentration of carrier and medium were considered as positive and negative controls, respectively. Thereafter, 96-well plates was statically incubated overnight at 37° C. to allow bacterial growth. A multipurpose UV/VIS plate reader at OD590 nm, 1 s shaking measured the absorbance of the growth bacteria using a Perkin Elmer spectrophotometer (1420 Multilabel Counter Victor 3).

[2] = test system: Enterobacter cloacae LMG2783T
Protocol: as §1, §2

[3] = test system: Acinetobacter baumanii
Protocol: as §1, §2

[4] = test system: Pseudomonas aeruginosa
Protocol: as §1, §2

[5] = test system: Acinetobacter radioresistens
Protocol: as §1, §2

[6] = test system: Klebsiella pneumoniae (ATCC 1388)
Protocol: as §1, §2

[7] = test system: Proteus mirabilis
Protocol: as §1, §2

CC(C)C[C@H](NC(=O)CNC(=O)[C@H](CCCNC(=N)N)NC(=O)[C@@H]1CCCN1C(=O)[C@H](CCCNC(=N)N)NC(=O)[C@H](CCCNC(=N)N)NC(=O)[C@@H](NC(=O)[C@H](CC(C)C)NC(=O)[C@H](C)NC(=O)[C@H](CC(C)C)NC(=O)CNC(=O)[C@H](CC(C)C)NC(=O)CNC(=O)[C@@H](N)CCCNC(=N)N)C(C)C)C(=O)NCC(=O)N[C@@H](CC(C)C)C(=O)N[C@@H](C)C(=O)N[C@@H](CC(C)C)C(=O)N[C@H](C(=O)N[C@@H](CCCNC(=N)N)C(=O)N[C@@H](CCCNC(=N)N)C(=O)O)C(C)C [Peptide P2] (H-RGLGLALVRRPRGLGLALVRR-OH)
MIC [1]: 50 µg/mL (≈ 21.7 µM) | MIC [2]: 50 µg/mL (≈ 21.7 µM) | MIC [3]: 6 µg/mL (≈ 2.61 µM) | MIC [4]: 200 µg/mL (≈ 87 µM) | MIC [5]: 5 µg/mL (≈ 2.17 µM) | MIC [6]: 50 µg/mL (≈ 21.7 µM) | MIC [7]: 50 µg/mL (≈ 21.7 µM)

From patent US11872262B2, “Means and methods for treating bacterial infections” (VIB VZW, priority 2017, dated 2024)
